Reference: ChEMBL document CHEMBL1681705, “Optimisation of ITK inhibitors through successive iterative design cycles” (Bioorg Med Chem Lett, 2011)

Tests used:
[1] = biological target: T1, Activin receptor type-1B (Homo sapiens) (UniProt P36896); assay: Inhibition of ALK4 at 1 uM; values are per cent of control
T1 sequence (whole entry): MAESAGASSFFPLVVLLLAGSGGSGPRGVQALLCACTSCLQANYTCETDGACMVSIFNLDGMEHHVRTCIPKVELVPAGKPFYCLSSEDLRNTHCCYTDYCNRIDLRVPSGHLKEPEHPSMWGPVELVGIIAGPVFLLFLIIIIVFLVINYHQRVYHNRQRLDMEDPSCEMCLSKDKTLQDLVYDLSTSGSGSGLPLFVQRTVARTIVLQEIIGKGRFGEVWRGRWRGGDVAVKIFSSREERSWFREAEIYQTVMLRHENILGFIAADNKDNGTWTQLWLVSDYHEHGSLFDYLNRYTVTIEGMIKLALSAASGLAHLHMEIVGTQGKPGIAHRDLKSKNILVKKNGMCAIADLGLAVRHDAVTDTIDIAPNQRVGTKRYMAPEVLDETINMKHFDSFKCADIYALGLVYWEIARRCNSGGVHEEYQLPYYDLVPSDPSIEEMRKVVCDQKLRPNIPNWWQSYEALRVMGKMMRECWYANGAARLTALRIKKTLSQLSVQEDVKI

[2] = biological target: Serine/threonine-protein kinase N2 (Homo sapiens) (UniProt Q16513); assay: Inhibition of PRK2 at 0.1 uM; values are per cent of control
[3] = biological target: T2, Ephrin type-B receptor 1 (Homo sapiens) (UniProt P54762); assay: Inhibition of EphB1 at 1 uM; values are per cent of control
T2 sequence (whole entry): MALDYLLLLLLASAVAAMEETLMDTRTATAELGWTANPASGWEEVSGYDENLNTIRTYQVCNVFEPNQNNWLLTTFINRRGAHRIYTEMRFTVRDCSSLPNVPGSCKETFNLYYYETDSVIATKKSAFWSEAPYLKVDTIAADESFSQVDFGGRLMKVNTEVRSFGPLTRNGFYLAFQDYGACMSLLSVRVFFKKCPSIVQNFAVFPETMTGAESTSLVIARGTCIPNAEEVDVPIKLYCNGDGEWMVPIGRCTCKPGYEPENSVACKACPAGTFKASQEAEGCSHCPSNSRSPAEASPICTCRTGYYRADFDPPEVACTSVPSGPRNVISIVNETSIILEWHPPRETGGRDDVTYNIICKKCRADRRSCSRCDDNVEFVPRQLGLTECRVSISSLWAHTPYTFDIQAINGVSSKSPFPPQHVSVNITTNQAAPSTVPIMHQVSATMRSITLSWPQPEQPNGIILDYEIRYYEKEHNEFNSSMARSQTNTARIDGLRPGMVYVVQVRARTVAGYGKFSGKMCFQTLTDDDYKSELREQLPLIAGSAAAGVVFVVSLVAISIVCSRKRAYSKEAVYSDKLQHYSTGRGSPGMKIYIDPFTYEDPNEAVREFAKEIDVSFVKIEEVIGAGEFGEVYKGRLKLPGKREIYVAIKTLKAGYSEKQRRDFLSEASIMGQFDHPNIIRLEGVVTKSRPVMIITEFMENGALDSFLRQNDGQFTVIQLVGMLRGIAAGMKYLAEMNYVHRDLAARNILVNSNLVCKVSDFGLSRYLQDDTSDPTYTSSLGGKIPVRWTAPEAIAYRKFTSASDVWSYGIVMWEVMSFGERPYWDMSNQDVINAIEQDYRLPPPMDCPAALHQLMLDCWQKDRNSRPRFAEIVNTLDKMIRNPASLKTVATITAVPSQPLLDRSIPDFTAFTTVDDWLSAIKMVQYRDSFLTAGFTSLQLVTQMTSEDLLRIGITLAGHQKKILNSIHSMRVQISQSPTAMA

[4] = Inhibition of MAPK2 at 0.1 uM; conditions: values are per cent of control
[5] = biological target: T3, Serine/threonine-protein kinase D2 (Homo sapiens) (UniProt Q9BZL6); assay: Inhibition of PKD2 at 0.1 uM; values are per cent of control
T3 sequence (whole entry): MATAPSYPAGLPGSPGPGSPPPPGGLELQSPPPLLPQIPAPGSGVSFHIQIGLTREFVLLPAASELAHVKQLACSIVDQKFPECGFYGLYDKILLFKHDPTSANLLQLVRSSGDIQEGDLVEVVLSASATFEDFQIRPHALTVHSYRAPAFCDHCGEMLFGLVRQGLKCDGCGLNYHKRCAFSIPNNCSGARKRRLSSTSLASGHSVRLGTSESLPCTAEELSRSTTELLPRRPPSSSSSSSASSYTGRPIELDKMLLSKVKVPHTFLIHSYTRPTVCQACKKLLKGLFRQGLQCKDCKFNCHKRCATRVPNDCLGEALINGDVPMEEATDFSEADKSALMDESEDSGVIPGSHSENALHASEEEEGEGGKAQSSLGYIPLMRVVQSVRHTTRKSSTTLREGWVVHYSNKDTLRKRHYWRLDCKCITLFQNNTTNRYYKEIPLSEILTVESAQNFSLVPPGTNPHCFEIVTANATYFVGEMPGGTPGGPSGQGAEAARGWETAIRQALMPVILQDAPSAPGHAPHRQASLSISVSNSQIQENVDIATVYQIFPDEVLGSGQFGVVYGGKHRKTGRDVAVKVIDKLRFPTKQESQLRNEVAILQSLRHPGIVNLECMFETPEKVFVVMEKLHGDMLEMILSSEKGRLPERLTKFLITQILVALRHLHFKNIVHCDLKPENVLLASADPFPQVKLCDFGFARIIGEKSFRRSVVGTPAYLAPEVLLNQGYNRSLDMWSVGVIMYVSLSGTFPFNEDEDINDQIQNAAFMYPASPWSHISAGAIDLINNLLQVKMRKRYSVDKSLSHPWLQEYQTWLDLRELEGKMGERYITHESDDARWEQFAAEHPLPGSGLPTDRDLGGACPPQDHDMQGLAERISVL

[6] = biological target: Death-associated protein kinase 2 (Homo sapiens) (UniProt Q9UIK4); assay: Inhibition of DAPK2 at 1 uM; values are per cent of control
[7] = biological target: Dual specificity mitogen-activated protein kinase kinase 1 (Homo sapiens) (UniProt Q02750); assay: Inhibition of MEK1 at 1 uM; values are per cent of control
[8] = biological target: CDK6/cyclin D3 (Homo sapiens) (UniProt P30281+Q00534); assay: Inhibition of CDK6/cyclin D3 at 1 uM; values are per cent of control
[9] = biological target: Proto-oncogene tyrosine-protein kinase receptor Ret (Homo sapiens) (UniProt P07949); assay: Inhibition of Ret at 0.1 uM; values are per cent of control
[10] = biological target: Cyclin-dependent kinase 5/CDK5 activator 1 (Homo sapiens) (UniProt Q00535+Q15078); assay: Inhibition of CDK5/p35 at 0.1 uM; values are per cent of control
Cyclin-dependent kinase 5/CDK5 activator 1 (Homo sapiens), sequence (Q00535 whole entry): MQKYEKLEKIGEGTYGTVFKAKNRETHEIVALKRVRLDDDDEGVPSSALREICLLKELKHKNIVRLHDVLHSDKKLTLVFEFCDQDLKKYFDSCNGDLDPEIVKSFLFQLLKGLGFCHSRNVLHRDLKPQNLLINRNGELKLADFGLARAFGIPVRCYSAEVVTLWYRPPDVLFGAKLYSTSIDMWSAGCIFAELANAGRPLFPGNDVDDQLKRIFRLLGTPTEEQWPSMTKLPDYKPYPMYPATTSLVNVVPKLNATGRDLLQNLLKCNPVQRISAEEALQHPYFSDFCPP
Cyclin-dependent kinase 5/CDK5 activator 1 (Homo sapiens), sequence (Q15078 99-307 partner limits assumed): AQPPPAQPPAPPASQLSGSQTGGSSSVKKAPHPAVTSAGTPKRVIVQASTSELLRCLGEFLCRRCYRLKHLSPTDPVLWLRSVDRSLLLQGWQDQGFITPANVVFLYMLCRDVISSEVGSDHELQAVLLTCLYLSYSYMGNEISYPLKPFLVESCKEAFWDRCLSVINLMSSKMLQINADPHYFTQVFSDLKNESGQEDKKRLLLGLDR

Death-associated protein kinase 2 (Homo sapiens), sequence (Q9UIK4 whole entry, looked up): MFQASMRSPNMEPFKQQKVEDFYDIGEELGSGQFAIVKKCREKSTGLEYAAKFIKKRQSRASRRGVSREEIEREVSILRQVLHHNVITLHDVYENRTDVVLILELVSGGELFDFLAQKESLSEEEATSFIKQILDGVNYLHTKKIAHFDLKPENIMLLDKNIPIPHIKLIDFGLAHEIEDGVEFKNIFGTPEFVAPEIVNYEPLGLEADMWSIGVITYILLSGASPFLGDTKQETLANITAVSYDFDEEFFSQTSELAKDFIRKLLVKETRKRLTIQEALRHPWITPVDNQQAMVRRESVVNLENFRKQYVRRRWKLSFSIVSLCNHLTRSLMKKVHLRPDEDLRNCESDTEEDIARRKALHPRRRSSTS
Proto-oncogene tyrosine-protein kinase receptor Ret (Homo sapiens), sequence (P07949 whole entry): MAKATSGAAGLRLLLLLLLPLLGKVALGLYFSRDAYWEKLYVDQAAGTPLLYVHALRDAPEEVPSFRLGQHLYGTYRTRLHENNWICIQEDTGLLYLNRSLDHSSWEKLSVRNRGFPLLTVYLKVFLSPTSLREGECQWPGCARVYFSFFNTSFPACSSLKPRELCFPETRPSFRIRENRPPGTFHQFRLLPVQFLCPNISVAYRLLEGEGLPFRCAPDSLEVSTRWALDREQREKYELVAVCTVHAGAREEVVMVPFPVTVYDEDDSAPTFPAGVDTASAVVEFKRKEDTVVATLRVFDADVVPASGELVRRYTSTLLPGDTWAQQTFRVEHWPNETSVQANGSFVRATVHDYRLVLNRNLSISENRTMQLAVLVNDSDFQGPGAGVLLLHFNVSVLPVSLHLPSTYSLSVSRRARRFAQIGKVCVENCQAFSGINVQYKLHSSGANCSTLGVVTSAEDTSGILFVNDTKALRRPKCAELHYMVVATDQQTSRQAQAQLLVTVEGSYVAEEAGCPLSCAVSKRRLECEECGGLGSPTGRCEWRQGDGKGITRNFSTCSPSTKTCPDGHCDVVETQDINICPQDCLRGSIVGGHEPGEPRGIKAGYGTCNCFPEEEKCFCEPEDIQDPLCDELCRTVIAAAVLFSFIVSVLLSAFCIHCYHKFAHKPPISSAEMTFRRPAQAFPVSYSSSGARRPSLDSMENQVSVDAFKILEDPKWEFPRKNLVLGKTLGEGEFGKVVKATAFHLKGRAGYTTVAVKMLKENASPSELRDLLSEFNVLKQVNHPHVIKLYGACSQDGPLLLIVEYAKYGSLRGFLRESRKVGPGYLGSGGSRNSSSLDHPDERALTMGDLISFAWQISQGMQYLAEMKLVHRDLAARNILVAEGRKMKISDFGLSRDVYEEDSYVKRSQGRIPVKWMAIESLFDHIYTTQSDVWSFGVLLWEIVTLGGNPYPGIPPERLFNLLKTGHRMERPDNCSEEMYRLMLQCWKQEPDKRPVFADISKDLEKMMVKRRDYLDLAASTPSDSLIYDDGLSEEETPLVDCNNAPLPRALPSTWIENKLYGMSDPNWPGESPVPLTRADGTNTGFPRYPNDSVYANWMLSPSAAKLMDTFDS
Dual specificity mitogen-activated protein kinase kinase 1 (Homo sapiens), sequence (Q02750 whole entry): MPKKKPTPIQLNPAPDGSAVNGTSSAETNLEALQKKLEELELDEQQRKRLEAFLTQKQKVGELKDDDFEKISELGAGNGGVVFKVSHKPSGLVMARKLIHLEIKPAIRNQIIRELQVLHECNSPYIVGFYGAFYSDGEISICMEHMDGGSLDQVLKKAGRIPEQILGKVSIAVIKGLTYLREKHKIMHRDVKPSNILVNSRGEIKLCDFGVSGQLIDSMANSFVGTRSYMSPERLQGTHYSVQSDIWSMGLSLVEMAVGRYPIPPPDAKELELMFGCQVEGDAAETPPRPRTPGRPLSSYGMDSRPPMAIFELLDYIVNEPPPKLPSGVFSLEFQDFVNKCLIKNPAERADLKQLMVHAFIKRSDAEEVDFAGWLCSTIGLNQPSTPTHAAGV
Serine/threonine-protein kinase N2 (Homo sapiens), sequence (Q16513 whole entry, looked up): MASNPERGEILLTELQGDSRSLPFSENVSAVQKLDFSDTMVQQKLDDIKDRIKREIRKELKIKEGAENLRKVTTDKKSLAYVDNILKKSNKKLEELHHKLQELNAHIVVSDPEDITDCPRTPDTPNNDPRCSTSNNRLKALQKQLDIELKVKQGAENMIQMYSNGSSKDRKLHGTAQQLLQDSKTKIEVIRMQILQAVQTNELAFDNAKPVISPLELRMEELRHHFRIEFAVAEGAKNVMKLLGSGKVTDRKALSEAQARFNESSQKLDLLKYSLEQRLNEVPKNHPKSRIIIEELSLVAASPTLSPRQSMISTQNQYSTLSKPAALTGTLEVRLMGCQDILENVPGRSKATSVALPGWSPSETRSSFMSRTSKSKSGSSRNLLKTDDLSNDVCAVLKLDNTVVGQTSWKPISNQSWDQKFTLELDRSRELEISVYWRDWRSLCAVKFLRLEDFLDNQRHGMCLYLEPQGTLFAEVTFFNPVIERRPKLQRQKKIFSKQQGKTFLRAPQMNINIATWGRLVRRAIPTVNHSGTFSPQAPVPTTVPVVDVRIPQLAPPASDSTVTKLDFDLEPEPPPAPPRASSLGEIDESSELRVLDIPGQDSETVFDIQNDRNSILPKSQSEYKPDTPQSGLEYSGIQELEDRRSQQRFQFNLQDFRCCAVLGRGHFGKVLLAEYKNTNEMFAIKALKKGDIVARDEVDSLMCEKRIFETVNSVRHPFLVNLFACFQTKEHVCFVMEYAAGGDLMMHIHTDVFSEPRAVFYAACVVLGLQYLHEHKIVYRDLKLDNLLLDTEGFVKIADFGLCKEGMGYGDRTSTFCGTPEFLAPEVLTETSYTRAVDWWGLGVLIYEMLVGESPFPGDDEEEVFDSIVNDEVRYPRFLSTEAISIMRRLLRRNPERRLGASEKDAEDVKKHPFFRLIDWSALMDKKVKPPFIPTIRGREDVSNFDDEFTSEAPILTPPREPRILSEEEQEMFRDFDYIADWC

Row | residual activity [1] [%] | residual activity [2] [%] | residual activity [3] [%] | residual activity [4] [%] | residual activity [5] [%] | residual activity [7] [%] | residual activity [8] [%] | residual activity [9] [%] | residual activity [10] [%] | SMILES | residual activity [6] [%]
1 | 114 | 93 | 5 | 108 | 41 | 13 | 33 | 8 | 19 | Cc1ccc2cc(-c3n[nH]c4ccc(NC5CCNC5)cc34)[nH]c2c1 (stereo not given) | 61
2 | 103 | 25 | 12 | 100 | 93 | 87 | 46 | 0 | 20 | Cc1ccc2cc(-c3n[nH]c4ccc(NC5CCN(Cc6ccccc6)CC5)cc34)[nH]c2c1 | 112
